What all share (assay type): cell-based
Experiment [1] relates to PCa cells (LNCaP and PC-3). Nature of the experiment: Cell death / apoptosis in PCa cells (Annexin V FITC/PI flow cytometry). Here is the method:
FIG. 6. Pharmacological inhibition of HSP60-ClpP interaction induces UPR^mt and PCa cell death. (A) Docking of DCEM1 into apical domain of HSP60. (B) LNCaP and PC-3 cells were treated with DCEM1 for 24 hours and HSP60-ClpP interaction was analyzed by co-immunoprecipitation assay. (C) LNCaP and PC-3 cells were treated with DCEM1 for 24 hours and mitoROS levels were analyzed by flow cytometry using mitoSOX dye. (D) LNCaP and PC-3 cells were treated with DCEM1 for 24 hours and poly-Ub protein levels were analyzed by western blotting. (E) LNCaP and PC-3 cells were treated with DCEM1 for 24 and 48 hours and apoptotic cell populations were analyzed by flow cytometry using Annexin V FITC/PI method as explained in materials and methods. In (E) top panel, the bars in each series from left to right are control, 5, 10, and 20, and in (E) bottom panel, the bars in each series from left to right are DMSO, 5, 10, and 20. (F) LNCaP and PC-3 cells were treated with DCEM1 for 24 and 48 hours and lysates were prepared and analyzed for DEVDase activity using specific peptide substrate. […] (G) LNCaP and PC-3 cells were pre-treated with SKQ1 followed by DCEM1 treatment and analyzed for cell viability by MTT assay. (H) LNCaP and PC-3 cells were treated with either DCEM1 or H2O2 (200 μM) for 24 hours and total DNA were isolated and analyzed for mtDNA damage as described in materials and methods. […]
A general note: A flow cytometer gives signals particle by particle.

The test system of experiment [2] is LNCaP and PC-3 cells. Nature of the experiment: mitoROS by flow cytometry using mitoSOX dye. Here is the method: FIG. 6. Pharmacological inhibition of HSP60-ClpP interaction induces UPR^mt and PCa cell death. (A) Docking of DCEM1 into apical domain of HSP60. (B) LNCaP and PC-3 cells were treated with DCEM1 for 24 hours and HSP60-ClpP interaction was analyzed by co-immunoprecipitation assay. (C) LNCaP and PC-3 cells were treated with DCEM1 for 24 hours and mitoROS levels were analyzed by flow cytometry using mitoSOX dye. (D) LNCaP and PC-3 cells were treated with DCEM1 for 24 hours and poly-Ub protein levels were analyzed by western blotting. (E) LNCaP and PC-3 cells were treated with DCEM1 for 24 and 48 hours and apoptotic cell populations were analyzed by flow cytometry using Annexin V FITC/PI method as explained in materials and methods. In (E) top panel, the bars in each series from left to right are control, 5, 10, and 20, and in (E) bottom panel, the bars in each series from left to right are DMSO, 5, 10, and 20. (F) LNCaP and PC-3 cells were treated with DCEM1 for 24 and 48 hours and lysates were prepared and analyzed for DEVDase activity using specific peptide substrate. In (F), the bars in each series from left to right are DMSO, 5, 10, and 20. (G) LNCaP and PC-3 cells were pre-treated with SKQ1 followed by DCEM1 treatment and analyzed for cell viability by MTT assay. (H) LNCaP and PC-3 cells were treated with either DCEM1 or H2O2 (200 μM) for 24 hours and total DNA were isolated and analyzed for mtDNA damage as described in materials and methods.
FIG. 7. […] (A) LNCaP and PC-3 cells were pre-treated with either rotenone or antimycin-A followed by DCEM1 treatment and mitochondrial ROS was analyzed as described in material and methods (data represented as fold change compared to control). In (A), the bars in each series from left to right are control, DCEM1, Rot+DCEM1, Anti A+DCEM1, Rot, and Anti A (B) ClpP protein was over-expressed in LNCaP and PC-3 cells followed by DCEM1 treatment and mitochondrial ROS was analyzed as described in material and methods (Data represented as fold change compared to control). […]

The test system of experiment [3] is LNCaP and PC-3 cells. Nature of the experiment: DEVDase (caspase) activity in cell lysates. The note with it: 24 and 48 hours. As to the method:
FIG. 6. Pharmacological inhibition of HSP60-ClpP interaction induces UPR^mt and PCa cell death. (A) Docking of DCEM1 into apical domain of HSP60. (B) LNCaP and PC-3 cells were treated with DCEM1 for 24 hours and HSP60-ClpP interaction was analyzed by co-immunoprecipitation assay. (C) LNCaP and PC-3 cells were treated with DCEM1 for 24 hours and mitoROS levels were analyzed by flow cytometry using mitoSOX dye. (D) LNCaP and PC-3 cells were treated with DCEM1 for 24 hours and poly-Ub protein levels were analyzed by western blotting. (E) LNCaP and PC-3 cells were treated with DCEM1 for 24 and 48 hours and apoptotic cell populations were analyzed by flow cytometry using Annexin V FITC/PI method as explained in materials and methods. […] (F) LNCaP and PC-3 cells were treated with DCEM1 for 24 and 48 hours and lysates were prepared and analyzed for DEVDase activity using specific peptide substrate. […] (G) LNCaP and PC-3 cells were pre-treated with SKQ1 followed by DCEM1 treatment and analyzed for cell viability by MTT assay. (H) LNCaP and PC-3 cells were treated with either DCEM1 or H2O2 (200 μM) for 24 hours and total DNA were isolated and analyzed for mtDNA damage as described in materials and methods.
FIG. 7. […] (C) ClpP protein was over-expressed in LNCaP and PC-3 cells followed by DCEM1 treatment and level of poly-ubiquitinated protein was analyzed by western blotting. […]

In experiment [4] the test system is HSP60, HSP10, ClpP and LONP1. Nature of the experiment: Expression of UPRmt components after DCEM1. The conditions noted are these: PCa cells.
The test system of experiment [5] is PC-3 cells. As to the kind of experiment: Oxygen consumption rate (OCR). The conditions noted are these: DCEM1 100 nM, 500 nM, 1 μM, 5 μM.
For experiment [6], the system named is LNCaP and PC-3 cells. Nature of the experiment: AMPK and mTOR signaling pathways / autophagy activation. The note with it: PCa cells. As to the method:
FIG. 7. Pharmacological inhibition of HSP60-ClpP interaction induces metabolic stress in PCa cells. (A) LNCaP and PC-3 cells were pre-treated with either rotenone or antimycin-A followed by DCEM1 treatment and mitochondrial ROS was analyzed as described in material and methods (data represented as fold change compared to control). In (A), the bars in each series from left to right are control, DCEM1, Rot+DCEM1, Anti A+DCEM1, Rot, and Anti A (B) ClpP protein was over-expressed in LNCaP and PC-3 cells followed by DCEM1 treatment and mitochondrial ROS was analyzed as described in material and methods (Data represented as fold change compared to control). In (B), the bars in each series from left to right are DMSO and DCEM1. (C) ClpP protein was over-expressed in LNCaP and PC-3 cells followed by DCEM1 treatment and level of poly-ubiquitinated protein was analyzed by western blotting. (D) ClpP protein was over-expressed in LNCaP and PC-3 cells followed by DCEM1 treatment and DEVDase activity was analyzed as described in material and methods (Data represented as fold change compared to control). In (D), the bars in each series from left to right are DMSO and DCEM1. (E) Mitochondrial membrane potential (mitoMP) was analyzed in LNCaP and PC-3 cells treated with DCEM1 as described in material and methods (Data represented as fold change compared to control). In (E), the bars in each series from left to right are DMSO, 5, and 10. (F) ATP level was analyzed in LNCaP and PC-3 cells treated with DCEM1 as described in material and methods (Data represented as fold change compared to control). In (F), the bars in each series from left to right are 0, 5, 10, and 20. (G) Oxygen consumption rate was analyzed in PC-3 cells treated with DCEM1 as described in material and methods and represented as basal and maximal respiration rate; Spare respiratory capacity and ATP production potential. […]
Abrogation of HSP60-ClpP interaction by DCEM1 induces metabolic stress in PCa cells. […] Since ATP depletion/reduction induces autophagy, autophagy activation in PCa cells was analyzed in response to DCEM1 treatment.

Consider `CCOc1cc(CNCc2nc3ccccc3[nH]2)ccc1OCc1cccs1` [DCEM1], for which the apoptotic cell death entry in experiment [1] (LNCaP and PC-3 cells, 24 and 48 hours, Annexin V FITC/PI) is given as “apoptotic cell death was observed”. Besides, the “cell death in PCa cells” value in experiment [1] (PCa cells) was “robust cell death”. The “DCEM1-induced mitoROS production and DEVDase activity with ClpP overexpression” value in experiment [2] (ClpP over-expressed in LNCaP and PC-3 cells followed by DCEM1) is recorded as “inhibited”. In addition, the mitoROS levels entry in experiment [2] (LNCaP and PC-3 cells, 24 hours) is listed as “mitoROS upregulation”. The “DCEM1-induced mitoROS production with inhibition of Complex I or III” value in experiment [2] (pre-treated with rotenone or antimycin-A followed by DCEM1) is “not attenuated”. Further, in experiment [3], the “caspase (DEVDase) activity” value is listed as “robust caspase activity”. Further, the “expression of UPRmt components HSP60, HSP10, ClpP and LONP1” value in experiment [4] is recorded as “failed to alter”. In addition, the “oxygen consumption rate (OCR)” value in experiment [5] is “reduction in oxygen consumption rate”. Also, in experiment [6], the ULK1 phosphorylation result was “enhanced phosphorylation at serine 555 residue and decreased phosphorylation at serine 757 residue”; the mTOR signaling entry was “inhibited mTOR signaling”; the “p-AMPKa levels and LC3B cleavage” value was “Robust increase”.

These data come from patent publication US20240009174A1, “METHODS FOR DISRUPTING MITOCHONDRIAL UNFOLDED PROTEIN RESPONSE” (Health Research, Inc., priority 2020, published 2024).
